According to paper PMC7070709, “Design, Synthesis, and In Vitro Evaluation of Hydroxybenzimidazole-Donepezil Analogues as Multitarget-Directed Ligands for the Treatment of Alzheimer’s Disease” (Molecules, 2020):

Key:
[1] = Cu(II) chelation by potentiometry; assay type: physicochemical; details: pH 7.4; read-out: conditional dissociation constant (K´d) for the copper complex
Excerpt: The metal chelating ability of hybrids 7 and 12, due to the BIM bidentate unity with (N,O) coordination mode, was studied by potentiometry. Figure 3A,B show a change in the deprotonation profile of the ligand titration curves due to the presence of the metal ions. In fact, the curves for the Cu(II)/L systems lie well below that of the ligand, while for the Zn(II)/L systems stay under for a > −1 (compound 7) or a > 0 (compound 12), thus supporting the formation of 1:1 and 1:2 M/L ratio complexes with the deprotonated and mono-protonated forms of the ligand and with relative metal dependent stability order (Cu > Zn). Table 1 contains the equilibrium models obtained from the fitting analysis of the potentiometric curves by program Hyperquad. In these equilibrium models, which the coordination core of the compounds integrates the bidentate (N,O) BIM moiety, MHL and MH2L2 correspond to species with the ligand containing one protonated nitrogen atom at the piperazine moiety, ML and ML2 correspond to complexes involving the completely deprotonated form of the ligand while MH-1L2 are mixed ligand-hydroxo metal complexes.
Solutions: the aqueous copper (CuCl2, 0.015 M) and zinc (ZnCl2, 0.0156 M) stock solutions for potentiometric equilibrium studies were prepared from 1000 ppm standards (Titrisol) and their metal content was evaluated by atomic absorption. The titrant solution (0.1 M KOH) was obtained from a carbonate-free commercial concentrate (Titrisol) and standardized by potentiometric titration with potassium hydrogen phthalate. The titrant solution was discarded whenever the percentage of carbonate (Gran’s method) was about 0.5% of the total amount of base.
Measurements: compounds 7 and 12 were titrated in 50% (w/w) DMSO/H2O medium, at T = 25.0 ± 0.1 °C and ionic strength (I) 0.1 M KCl, using 0.1 M KOH as titrant. Both glass and Ag/AgCl reference electrodes were previously conditioned in DMSO/H2O mixtures with increasing amounts of DMSO and the response of the glass electrode was controlled by strong acid–strong base (HCl/KOH) calibrations with the determination of the Nernst parameters by Gran’s method. […] All titrations were performed in duplicate and under the stated experimental conditions the pKw value (13.6) was determined and subsequently used in the computations. The stepwise protonation constant of the ligand, Ki = [HiL]/([Hi–1L][H]), and the overall metal–complex stability constants, βMmHhLl = [MmHhLl]/([M]^m[H]^h[L]^l), were calculated by fitting the potentiometric titration data with Hyperquad 2008 [26]. The metal hydrolysis constants were determined under the defined experimental conditions (I = 0.1 M KCl, 50% w/w DMSO/H2O, T = 25.0 ± 0.1 °C) and the following values of stability constants were included in the fitting of experimental data towards the equilibrium models related to the Cu^2+/L and Zn^2+/L systems: log βCu2H−2 = −9.99; log βZnH−2 = −14.79, log βZnH−3 = −23.48. Species distribution curves were plotted with the Hyss program.

Aβ1–42 = molecular target: T1, Aβ1–42 (Homo sapiens, UniProt P05067); parameters: method as in PMID 32171933; details: footnote e; cited from earlier work
T1 construct: Aβ1–42 (40 μM) was incubated at 37 °C, for 24 h with or without Cu(II) (40 μM)

Aβ1–42 with Cu(II) [2] = molecular target: T2, Aβ1–42 with Cu(II) (Homo sapiens, UniProt P05067); assay: Inhibition of Cu-induced Aβ1–42 aggregation (thioflavin T fluorescence); assay type: biochemical
Procedure: The anti-amyloidogenic capacity of the compounds was also evaluated in vitro, in the absence and presence of Cu(II), based on the measurement of the fluorescence emission of Thioflavin T (ThT), a stain known by its Aβ fibril binding capacity. This binding interaction can be analyzed by fluorimetry, since the presence of ThT-fibrils increases the absorbance and the emission of the ThT dye, and it also induces red shifts on the absorbance (from 385 to 446 nm) and emission peaks (from 445 to 485 nm). All the measurements were performed after incubation (24 h, 37 °C) of the self-mediated and Cu^2+-induced Aβ aggregates in the presence/absence of the compounds under evaluation.
Herein, due to solubility problems of some compounds in the phosphate buffer (0.215 M, pH 8.0) of the working medium, the assays were carried out in the presence of 40 μM concentration of inhibitor and 20 μM in the case of compound 4, instead of 80 μM as previously reported. […] The activity dependence on ligand structural features may be mainly explained by the different ability for intercalation into the fibrils, as already assumed for other inhibitors. […] The data obtained for compounds 6 and 7 indicate that the presence of R1 = F, -NO2 substituents in the BIM have some small positive effect on the inhibition of Aβ aggregation.
The Aβ peptide was treated with 1,1,1,3,3,3-hexafluoropropan-2-ol (HFIP) and dissolved in a CH3CN/Na2CO3 (300 μM)/NaOH (250 μM) (48.3:48.3:4.3, v/v/v) mixture in order to have a stable stock solution, avoiding self-aggregation of Aβ1–42. Then, the prepared 500 μM solution was diluted at 40 μM in phosphate buffer (0.215 M, pH 8.0).
The solutions of the tested compounds were prepared in MeOH (1 mg/mL), being further diluted in phosphate buffer to a concentration of 480 μM. For copper-induced aggregation studies, a solution of CuCl2 240 μM was prepared from a stock standard solution (0.015 M). To perform the assays for the Aβ1–42 aggregation inhibition, a reported method, based on the fluorescence emission of thioflavin T (ThT), was followed. Aβ1–42 (40 μM) was incubated at 37 °C, for 24 h with or without Cu(II) (40 μM) in a phosphate buffer in presence or absence of the single ligand (40 μM and 20 μM for compound 4). Then, the samples were added to a 96-well plate with […] of 5 μM ThT in 50 mM glycine-NaOH (pH 8.5) buffer. Blank samples were prepared without the peptide for each concentration. The ThT fluorescence was measured at 446 nm (excitation) and 485 nm (emission). The inhibition percentage of aggregation was calculated by Equation (2), in which IFi and IF0 corresponded to the fluorescence intensities, in the presence and in the absence of the tested compound, subtracted of the fluorescence intensities due to the respective blanks.
The reported values were obtained as the mean ± SEM of duplicate of three different experiments.

[3] = 50% w/w DMSO/water, I = 0.1 M KCl, 25.0 °C; cited from earlier work
Aβ1–42 with Cu(II) [4] = molecular target: T2, Aβ1–42 with Cu(II); parameters: method as in PMID 32171933; details: copper 40 µM; footnote e; cited from earlier work
[5] = pH 7.4, CL/CM = 10, CM = 10^−6 M; cited from earlier work
[6] = molecular target: T3, AChE (type VI-S, from electric eel) (Electrophorus electricus, UniProt O42275); details: read-out: TcAChE Inhibition IC50; cited from earlier work
T3 construct: purchased type VI-S

[7] = pH 7.4, CL/CM = 10, CM = 10^−6 M; cited from earlier work; remark: listed apart in the source

T2 sequence (P05067 672-713): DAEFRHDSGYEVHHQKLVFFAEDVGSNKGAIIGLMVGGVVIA
T3 sequence (O42275 24-633): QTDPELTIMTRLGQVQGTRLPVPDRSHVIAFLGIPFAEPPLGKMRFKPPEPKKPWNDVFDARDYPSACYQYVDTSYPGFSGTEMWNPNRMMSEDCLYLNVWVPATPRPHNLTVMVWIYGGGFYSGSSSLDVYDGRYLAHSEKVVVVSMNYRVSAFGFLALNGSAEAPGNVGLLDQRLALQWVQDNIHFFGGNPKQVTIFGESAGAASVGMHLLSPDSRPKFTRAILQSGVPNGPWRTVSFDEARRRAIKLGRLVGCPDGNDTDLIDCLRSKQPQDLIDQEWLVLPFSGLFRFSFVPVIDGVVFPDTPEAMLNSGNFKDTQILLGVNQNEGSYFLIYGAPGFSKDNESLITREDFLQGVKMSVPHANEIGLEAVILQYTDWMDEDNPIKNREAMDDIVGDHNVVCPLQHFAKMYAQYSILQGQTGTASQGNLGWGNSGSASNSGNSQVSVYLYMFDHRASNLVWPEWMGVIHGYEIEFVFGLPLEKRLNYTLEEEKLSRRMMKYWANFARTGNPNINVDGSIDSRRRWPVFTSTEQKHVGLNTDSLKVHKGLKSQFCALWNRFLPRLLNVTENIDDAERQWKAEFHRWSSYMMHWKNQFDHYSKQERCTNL
T1 sequence (P05067 672-713): as the sequence (P05067 672-713) above

Compound: O=C(NCC1CCN(Cc2ccccc2)CC1)c1cccc2[nH]c(-c3ccccc3O)nc12 [Compound 5]
- Kd [1]: 0.000254 µM
- Aβ1–42 Aggregation Inhibition, Self-Induced (Aβ1–42): 38.6 ^e %
- increase on Cu-induced Aβ aggregation (inhibition) relative to the self-induced one (Aβ1–42 with Cu(II) [2]): more than 50%
- log K1, stepwise protonation constant (011) [3]: 8.98(2)
- log K2, stepwise protonation constant (021) [3]: 7.78(4)
- log K3, stepwise protonation constant (031) [3]: 2.86(5)
- Aβ1–42 Aggregation Inhibition, Cu-Induced (Aβ1–42 with Cu(II) [4]): 58.9 ^e %
- pCu (pM = −log[M]) [5]: 14.3
- IC50 [6]: 9 ± 1 µM
- pZn (pM = −log[M]) [7]: 6.4
